Data: PMC11483813, “Bombesin-Targeted Delivery of β-Carboline-Based Ir(III) and Ru(II) Photosensitizers for a Selective Photodynamic Therapy of Prostate Cancer” (Inorganic Chemistry, 2024)
Values joined by “and” are separate entries in the source; they are usually repeats but may differ in a detail not shown here. Identical values can stand only once. Like-named read-outs stand apart in the source and are kept apart here. Residues, ends and D or L forms follow the SMILES beside them. *: point of attachment. X1 = Cn1c2ccccc2c2ccnc(-c3ccc(/C=C/C(=O)*)cn3)c21

Legend:
Assay type in all cases: cell-based, human
A549 lung cancer cells = conditions: for PI (IC50,dark/IC50,light) A549: blue light 460 nm
Procedure: (§1) The effect of Ir-H, Ir-Me, Ru-H, and Ru-Me on cell viability was evaluated in the A549 lung cancer and PC-3 prostate cancer cell lines by MTT assays. PC-3 cells were specifically chosen due to their high expression levels of GRPR on their surface, allowing for further evaluation of the activity of the BN3-derived metallopeptides Ir-BN and Ru-BN.[38],[51] In contrast, A549 cells express low levels of GRPR.[52] MRC-5 fibroblasts were used as a nonmalignant cell model.[53]Table 3 reports the half maximal inhibitory concentration (IC50) values obtained after treating the cells either under dark conditions or upon exposure to blue light at a dose of 24.1 J cm^–2. The photocytotoxicity index (PI), defined as the IC50,dark/IC50,light, is provided for each compound.
(§2) Stock solutions of the complexes and metallopeptides were initially prepared at a concentration of 5 mM in DMSO and then diluted in sterile distilled water to achieve a final concentration of 1 mM, with a resulting DMSO concentration of 20% v/v. Cells were seeded into 96-well plates at a density of 2500 cells/well for A549, 3500 cells/well for PC-3, and 5500 cells/well for MRC-5. Following 24 h of incubation for attachment, cells were treated in triplicate with freshly prepared working solutions of the compounds in the culture medium at concentrations ranging from 0.001 to 100 μM. The maximum DMSO concentration in the working solutions was 2% (v/v). The working concentrations for each compound were adjusted based on their cytotoxicity. Following a 4 h incubation period to allow internalization of the compounds into the cells, the plates were kept in dark conditions or exposed to blue (460 nm) or red (655 nm) light for 1 h using an LED system (LuxLight), providing a total dose of 24.1 J cm^–2. All plates were incubated in the dark for an additional 43 h. Cells were then washed with phosphate-buffered saline (PBS), and 100 μL of fresh culture medium containing 10% of 3-[4,5-dimethylthiazol-2-yl]-2,5 diphenyl tetrazolium bromide (MTT) solution (0.5 mg/mL) (Sigma- Aldrich) was added to each well. After a 2 h incubation period, the formazan crystals were dissolved in DMSO, and the absorbance was measured at 570 nm using a Multiscan Plate Reader (Synergy 4, Biotek, Winooski, USA). The concentration causing a 50% reduction in cell viability (IC50) was determined for each compound with the Gen5 software (BioTek). At least three independent experiments were conducted for each compound.

MRC-5 fibroblasts = conditions: for PI (IC50,dark/IC50,light) MRC-5: blue light 460 nm
Procedure: as §1, §2

[1] = system: PC-3 prostate cancer cells; conditions: for PI (IC50,dark/IC50,light) PC-3: blue light 460 nm
Procedure: as §1, §2

PC-3 cells = test: Cellular internalization by ICP-MS; conditions: 5 μM, 4 h
Procedure: Figure 10 Cellular internalization. PC-3 cells were incubated for 4 h with the indicated compounds at 5 μM, and the Ir (A) or Ru (B) content per 1 × 10^6 cells was quantified by ICP-MS. Bars represent the mean value of three replicates ± SD. * p < 0.05; *** p < 0.001 versus Ir-H or Ru-H.
The intracellular accumulation of the PSs is a crucial requirement to achieve a photocytotoxic effect. This is because the ROS generated by the PSs have a very limited radius of action and only operate in the cellular compartment or organelle in which they are generated.[57] […] This further emphasizes the importance of cellular uptake for their cytotoxic activity. Additionally, when using tumor-targeting ligands, such as BN3, the intracellular uptake of the metallopeptides depends on the level of expression of the target receptor on the cell surface and the internalization mechanism, which may differ from that of the free complex. Therefore, the internalization of complexes Ir-H, Ir-Me, Ru-H, and Ru-Me and of metallopeptides Ir-BN and Ru-BN in PC-3 cells was determined by quantifying the intracellular metal content by inductively coupled plasma mass spectrometry (ICP-MS) (Figure 10). After 4 h treatment with the compounds at 5 μM, the amount of Ir in cells exposed to Ir-H was 3.1 ± 0.7 ng per million cells, whereas in the case of its conjugated form Ir-BN, it increased 5.7-fold to 17.9 ± 5.6 ng per million cells. […]
PC-3 cells were seeded in 6-well plates at a density of 2 million cells/well. […] The number of cells in each sample was determined using a Novocyte flow cytometer (Agilent Technologies). The samples were centrifuged to obtain the cell pellet, and the complex content was subsequently assessed using inductively coupled plasma mass spectrometry (ICP-MS). […] The Ir or Ru content was analyzed in Agilent 7500c ICP-MS located at the Technical Research Services of the University of Girona. […] The isotopes detected were ^193Ir, ^101Ru, and ^103Rh, respectively. […] Three independent samples were analyzed for each complex.

[2] = A549, 4 h incubation, blue light 1 h (460 nm, 24.1 J cm^–2), MTT after 48 h, read-out: IC50 A549 Light
[3] = A549, 4 h incubation, kept in the dark 1 h, MTT after 48 h, read-out: IC50 A549 Dark
[4] = MRC-5, 4 h incubation, blue light 1 h (460 nm, 24.1 J cm^–2), MTT after 48 h, read-out: IC50 MRC-5 Light
[5] = MRC-5, 4 h incubation, kept in the dark 1 h, MTT after 48 h, read-out: IC50 MRC-5 Dark
[6] = PC-3, 4 h incubation, blue light 1 h (460 nm, 24.1 J cm^–2), MTT after 48 h, read-out: IC50 PC-3 Light
[7] = PC-3, 4 h incubation, kept in the dark 1 h, MTT after 48 h, read-out: IC50 PC-3 Dark

For CC(C)C[C@H](NC(=O)[C@H](CC(C)C)NC(=O)[C@H](Cc1c[nH]cn1)NC(=O)CNC(=O)[C@@H](NC(=O)[C@H](C)NC(=O)[C@H](Cc1c[nH]c2ccccc12)NC(=O)[C@H](CCC(N)=O)NC(=O)[C@H](CC(N)=O)NC(=O)CNC(=O)[C@H](CC(C)C)NC(=O)[C@H](CCCNC(=N)N)NC(=O)[C@H](CCC(N)=O)NC(=O)/C=C/c1ccc(-c2nccc3c4ccccc4n(C)c23)nc1)C(C)C)C(N)=O [Ir-BN] (X1-QRLGNQWAVGHLL-NH2), the IC50 (A549 lung cancer cells; 4 h) was 12.6 ± 1.3 µM, the “PI (IC50,dark/IC50,light) A549” value (A549 lung cancer cells; A549) was 5.4 and the IC50 (MRC-5 fibroblasts; 4 h) was 28.7 ± 5.9 µM. The “IC50,light in MRC-5, fold higher than that of Ir-H” value (MRC-5 fibroblasts; MRC-5, blue light) was 4.4 fold, the “PI (IC50,dark/IC50,light) MRC-5” value (MRC-5 fibroblasts; MRC-5) was 2.8 and the “IC50,dark in MRC-5, fold higher than that of Ir-H” value (MRC-5 fibroblasts; MRC-5, dark) was 2.1 fold. For the same compound, the IC50 ([1]; 4 h) was 8.51 ± 0.8 µM, the “photoselectivity index (IC50,dark in nonmalignant cells/IC50,light in GRPR overexpressing cancer cells)” value ([1]; 24 h) was 9.5 and the “PI (IC50,dark/IC50,light) PC-3” value ([1]; PC-3) was 4.1. For the same compound, the “selectivity for PC-3 cells with respect to MRC-5 fibroblasts” value ([1]; after blue light) was 3.4 fold.
With Cn1c2ccccc2c2ccnc(-c3ccc(/C=C/C(=O)O)cn3)c21.[Cl-].[Ir+3].[c-]1ccccc1-c1ccccn1.[c-]1ccccc1-c1ccccn1 [Ir-H] the IC50 (A549 lung cancer cells; [2]) was 3.32 ± 1.1 µM, the IC50 (A549 lung cancer cells; [3]) was 35 ± 5.4 µM and the “PI (IC50,dark/IC50,light) A549” value (A549 lung cancer cells; A549) was 10.5. The IC50 (MRC-5 fibroblasts; [4]) was 6.46 ± 0.801 µM, the IC50 (MRC-5 fibroblasts; [5]) was 39.1 ± 2.4 µM and the “PI (IC50,dark/IC50,light) MRC-5” value (MRC-5 fibroblasts; MRC-5) was 6.1. For the same compound, the IC50 [1, 6] was 9.23 ± 0.63 µM, the IC50 [1, 7] was 32.2 ± 1.9 µM and the “PI (IC50,dark/IC50,light) PC-3” value ([1]; PC-3) was 3.49 and 3.5. For the same compound, the “amount of Ir in cells” value (PC-3 cells) was 3.1 ± 0.7 ng per million cells.
COC(=O)/C=C/c1ccc(-c2nccc3c4ccccc4n(C)c23)nc1.[Cl-].[Ir+3].[c-]1ccccc1-c1ccccn1.[c-]1ccccc1-c1ccccn1 [Ir-Me] was tested, and the IC50 (A549 lung cancer cells; [2]) was 0.0334 ± 0.0068 µM, the IC50 (A549 lung cancer cells; [3]) was 0.471 ± 0.031 µM and the “PI (IC50,dark/IC50,light) A549” value (A549 lung cancer cells; A549) was 14.2. The IC50 (MRC-5 fibroblasts; [4]) was 0.0313 ± 0.019 µM, the IC50 (MRC-5 fibroblasts; [5]) was 1.12 ± 0.31 µM and the “PI (IC50,dark/IC50,light) MRC-5” value (MRC-5 fibroblasts; MRC-5) was 35.8. The IC50 [1, 6] was 0.0723 ± 0.031 µM, the IC50 [1, 7] was 1.17 ± 0.29 µM and the “PI (IC50,dark/IC50,light) PC-3” value ([1]; PC-3) was 16.2. For the same compound, the “amount of Ir in cells” value (PC-3 cells) was 266.4 ± 13.9 ng per million cells.
Cn1c2ccccc2c2ccnc(-c3ccc(/C=C/C(=O)O)cn3)c21.[Cl-].[Cl-].[Ru+2].c1ccc(-c2ccccn2)nc1.c1ccc(-c2ccccn2)nc1 [Ru-H] was tested, and the IC50 (A549 lung cancer cells; [2]) was 56.7 ± 1.6 µM, the IC50 (A549 lung cancer cells; [3]) was 67.8 ± 6.7 µM and the “PI (IC50,dark/IC50,light) A549” value (A549 lung cancer cells; A549) was 1.2. For the same compound, the IC50 (MRC-5 fibroblasts; [4]) was 43.5 ± 4.5 µM, the IC50 (MRC-5 fibroblasts; [5]) was 53.9 ± 5.4 µM and the “PI (IC50,dark/IC50,light) MRC-5” value (MRC-5 fibroblasts; MRC-5) was 1.2. The “PI (IC50,dark/IC50,red light) MRC-5” value (MRC-5 fibroblasts; MRC-5, red light 655 nm) was 0.9, the IC50 (MRC-5 fibroblasts; MRC-5, red light 1 h (655 nm, 24.1 J cm^–2), MTT after 48 h, read-out: IC50,redlight MRC-5) was 62.3 ± 7.1 µM and the IC50 [1, 6] was 34.8 ± 4.3 µM. For the same compound, the IC50 [1, 7] was 70.4 ± 2.7 µM, the “PI (IC50,dark/IC50,light) PC-3” value ([1]; PC-3) was 2.0 and the “PI (IC50,dark/IC50,red light) PC-3” value ([1]; PC-3, red light 655 nm) was 1.3. For the same compound, the IC50 ([1]; PC-3, red light 1 h (655 nm, 24.1 J cm^–2), MTT after 48 h, read-out: IC50,redlight PC-3) was 54.3 ± 4.7 µM and the “intracellular Ru content” value (PC-3 cells) was 0.329 ng per million cells.
